What all share (experiment): microbe, parasite or virus in culture
What all share (type): cell-based, Hepatitis C virus (HCV)

The subject of assay [1] is HCV replicon 2B. The conditions noted are these: Replicon Assay A. A digest of the protocol: (§1)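 Replicon cells incubated with compound for 3 days in medium with 5% FBS and 0.5% DMSO final. Replicon RNA measured in lysates by multiplex real-time RT-PCR (Neo set) against cyclophilin control, quantified from standard curves of Ct versus log ng replicon total RNA.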
(In general: A replicon is a self-replicating genome or part of one, used to study replication in cells.)

Assay [2] has as its system HCV replicon 1A. The conditions noted are these: replicon 1A, Replicon Assay A. The method in brief:
as §1

Assay [3] relates to HCV replicon 1AY93H. The conditions noted are these: Replicon Assay A. A digest of the protocol: as §1
[4] abbreviates: read-out: 1A Y93H IC50, replicon 1AY93H.
Setting [5] is: Hepatitis C virus, read-out: 2B IC50 (nM), replicon 2B.
Where [6] appears, read: Hepatitis C virus, read-out: 1A Y93H IC50 (nM), replicon 1AY93H.

Where two headings read alike, the source gives them in different places.

The values below come from patent US20160257697A1, “THIOPHENE-SUBSTITUTED TETRACYCLIC COMPOUNDS AND METHODS OFUSE THEREOF FOR THE TREATMENT OF VIRAL DISEASES” (priority 2013, published 2016).

As to `COC(=O)NC(C(=O)N1CCC[C@H]1c1ncc(-c2ccc3c(c2)cc2n3C(c3ccc(C4CC4)s3)Oc3cc(-c4cnc([C@@H]5CCCN5C(=O)[C@@H](NC(=O)OC)C5CCOCC5)[nH]4)cc(F)c3-2)[nH]1)C(C)(C)F` (single isomer, unassigned) [Compound 174], the IC50 in assay [1] (read-out: 2B IC50, replicon 2B) was 0.16 nM; in assay [2] it was 0.0011 nM; in assay [3] (setting [4]), 0.614 nM.

Regarding `COC(=O)NC(C(=O)N1CCC[C@H]1c1ncc(-c2ccc3c(c2)cc2n3C(c3ccc(C4CC4)s3)Oc3cc(-c4cnc([C@@H]5CCCN5C(=O)[C@@H](NC(=O)OC)C5CCOCC5)[nH]4)cc(F)c3-2)[nH]1)C(C)(C)F` (single isomer, unassigned) [Compound 175], the half-maximal inhibitory concentration (IC50) amounted to 10.5 nM in assay [1] (read-out: 2B IC50, replicon 2B); 0.0077 nM in assay [2]; 9.03 nM in assay [3] (setting [4]).

On to `COC(=O)NC(C(=O)N1CCC[C@H]1c1ncc(-c2ccc3c(c2)cc2n3C(c3ccc(C4CC4)s3)Oc3cc(-c4cnc([C@@H]5CCCN5C(=O)[C@@H](NC(=O)OC)C(C)C)[nH]4)cc(F)c3-2)[nH]1)C1CC2CCC(C1)O2` (single isomer, unassigned) [Compound 181], for which the values for the concentration for half-maximal inhibition (IC50) in assay [1] (setting [5]), in assay [2] and in assay [3] (setting [6]) were 0.083 nM, 0.0023 nM and 0.054 nM, respectively.

Consider `COC(=O)NC(C(=O)N1CCC[C@H]1c1ncc(-c2ccc3c(c2)cc2n3C(c3ccc(C4CC4)s3)Oc3cc(-c4cnc([C@@H]5CCCN5C(=O)[C@@H](NC(=O)OC)C(C)C)[nH]4)cc(F)c3-2)[nH]1)C1C[C@@H](C)O[C@H](C)C1` (single isomer, unassigned) [Compound 191], for which the IC50 in assay [1] (read-out: 2B IC50, replicon 2B) was 0.89 nM; in assay [2] it was 0.0014 nM; in assay [3] (setting [4]), 0.32 nM.

As for `COC(=O)NC(C(=O)N1CCC[C@H]1c1ncc(-c2ccc3c(c2)cc2n3C(c3ccc(C4CC4)s3)Oc3cc(-c4cnc([C@@H]5CCCN5C(=O)[C@@H](NC(=O)OC)C(C)C)[nH]4)cc(F)c3-2)[nH]1)C1C[C@@H](C)O[C@H](C)C1` (single isomer, unassigned) [Compound 192], the IC50 amounted to 0.047 nM in assay [1] (read-out: 2B IC50, replicon 2B); 0.0011 nM in assay [2]; 0.028 nM in assay [3] (setting [4]).

Take `COC(=O)NC(C(=O)N1CCC[C@H]1c1ncc(-c2ccc3c(c2)cc2n3C(c3ccc(C4CC4)s3)Oc3cc(-c4cnc([C@@H]5CCCN5C(=O)[C@@H](NC(=O)OC)C(C)C)[nH]4)cc(F)c3-2)[nH]1)C1C[C@@H](C)O[C@H](C)C1` (single isomer, unassigned) [Compound 193]: the IC50 stood at 18.6 nM in assay [1] (read-out: 2B IC50, replicon 2B); 0.0256 nM in assay [2]; 4.75 nM in assay [3] (setting [4]).

On to `CCc1ccc(C2Oc3cc(-c4cnc([C@@H]5CCCN5C(=O)[C@@H](NC(=O)OC)C(C)C)[nH]4)cc(F)c3-c3cc4cc(-c5cnc([C@@H]6C[C@H]7C[C@H]7N6C(=O)C(NC(=O)OC)C6C[C@@H](C)O[C@@H](C)C6)[nH]5)ccc4n32)s1` (single isomer, unassigned) [Compound 194], for which the results for the IC50 in assay [1] (setting [5]), in assay [2] (Hepatitis C virus) and in assay [3] (setting [6]) were 0.63 nM, 0.0019 nM and 0.095 nM, respectively.

For the compound `CCc1ccc(C2Oc3cc(-c4cnc([C@@H]5CCCN5C(=O)[C@@H](NC(=O)OC)C(C)C)[nH]4)cc(F)c3-c3cc4cc(-c5cnc([C@@H]6C[C@H]7C[C@H]7N6C(=O)C(NC(=O)OC)C6CCOC(C)(C)C6)[nH]5)ccc4n32)s1` (single isomer, unassigned) [Compound 196], the half-maximal inhibitory concentration (IC50) in assay [1] (read-out: 2B IC50, replicon 2B) worked out at 0.55 nM; in assay [2], 0.0018 nM; in assay [3] (setting [4]), 0.062 nM.

Regarding `CCc1ccc(C2Oc3cc(-c4cnc([C@@H]5CCCN5C(=O)[C@@H](NC(=O)OC)C(C)C)[nH]4)cc(F)c3-c3cc4cc(-c5cnc([C@@H]6C[C@H]7C[C@H]7N6C(=O)C(NC(=O)OC)C6CCOC(C)(C)C6)[nH]5)ccc4n32)s1` (single isomer, unassigned) [Compound 197], the IC50 in assay [1] (read-out: 2B IC50, replicon 2B) came out at 0.47 nM; in assay [2], 0.0021 nM; in assay [3] (setting [4]), 0.1 nM.

With `CCc1ccc(C2Oc3cc(-c4cnc([C@@H]5CCCN5C(=O)[C@@H](NC(=O)OC)C(C)C)[nH]4)cc(F)c3-c3cc4cc(-c5cnc([C@@H]6C[C@H]7C[C@H]7N6C(=O)C(NC(=O)OC)C6CCOC(C)(C)C6)[nH]5)ccc4n32)s1` (single isomer, unassigned) [Compound 199], the IC50 in assay [1] (read-out: 2B IC50, replicon 2B) stood at 33.3 nM; in assay [2], 0.118 nM; in assay [3] (setting [4]) it was 26.5 nM.

Regarding `CCc1ccc(C2Oc3cc(-c4cnc([C@@H]5CCCN5C(=O)[C@@H](NC(=O)OC)C(C)C)[nH]4)cc(F)c3-c3cc4cc(-c5cnc([C@@H]6C[C@H]7C[C@H]7N6C(=O)C(NC(=O)OC)C6CCOC(C)(C)C6)[nH]5)ccc4n32)s1` (single isomer, unassigned) [Compound 202], the 50% inhibitory concentration (IC50) in assay [1] (read-out: 2B IC50, replicon 2B) turned out to be 3.31 nM; in assay [2], 0.0013 nM; in assay [3] (setting [4]) it was 0.49 nM.

On to `CCc1ccc(C2Oc3cc(-c4cnc([C@@H]5CCCN5C(=O)[C@@H](NC(=O)OC)C(C)C)[nH]4)cc(F)c3-c3cc4cc(-c5cnc([C@@H]6C[C@H]7C[C@H]7N6C(=O)C(NC(=O)OC)C6CCOC(C)(C)C6)[nH]5)ccc4n32)s1` (single isomer, unassigned) [Compound 203], for which the IC50 in assay [1] (read-out: 2B IC50, replicon 2B) stood at 0.83 nM; in assay [2], 0.0016 nM; in assay [3] (setting [4]), 0.12 nM.

Take `COC(=O)NC(C(=O)N1CCC[C@H]1c1ncc(-c2cc(F)c3c(c2)OC(c2ccc(C4CC4)s2)n2c-3cc3cc(-c4cnc([C@@H]5CCCN5C(=O)[C@@H](NC(=O)OC)C(C)C)[nH]4)ccc32)[nH]1)C1CCOC(C)(C)C1` (single isomer, unassigned) [Compound 210]: the IC50 in assay [1] (read-out: 2B IC50, replicon 2B) is 0.33 nM; in assay [2], 0.0018 nM; in assay [3] (setting [4]), 0.52 nM.

Consider `COC(=O)NC(C(=O)N1CCC[C@H]1c1ncc(-c2cc(F)c3c(c2)OC(c2ccc(C4CC4)s2)n2c-3cc3cc(-c4cnc([C@@H]5CCCN5C(=O)[C@@H](NC(=O)OC)C(C)C)[nH]4)ccc32)[nH]1)C1CCOC(C)(C)C1` (single isomer, unassigned) [Compound 211], for which the IC50 in assay [1] (read-out: 2B IC50, replicon 2B) was 0.42 nM; in assay [2], 0.0026 nM; in assay [3] (setting [4]), 0.22 nM.

Consider `COC(=O)NC(C(=O)N1CCC[C@H]1c1ncc(-c2cc(F)c3c(c2)OC(c2ccc(C4CC4)s2)n2c-3cc3cc(-c4cnc([C@@H]5CCCN5C(=O)[C@@H](NC(=O)OC)C(C)C)[nH]4)ccc32)[nH]1)C1CCOC(C)(C)C1` (single isomer, unassigned) [Compound 212], for which the half-maximal inhibitory concentration (IC50) in assay [1] (read-out: 2B IC50, replicon 2B) came out at 8.59 nM; in assay [2], 0.0681 nM; in assay [3] (setting [4]), 6.07 nM.

Turning to `COC(=O)NC(C(=O)N1CCC[C@H]1c1ncc(-c2cc(F)c3c(c2)OC(c2ccc(C4CC4)s2)n2c-3cc3cc(-c4cnc([C@@H]5CCCN5C(=O)[C@@H](NC(=O)OC)C(C)C)[nH]4)ccc32)[nH]1)C1CCOC(C)(C)C1` (single isomer, unassigned) [Compound 217], the IC50 in assay [1] (read-out: 2B IC50, replicon 2B) turned out to be 0.39 nM; in assay [2] it was 0.003 nM; in assay [3] (setting [4]) it was 0.18 nM.

Turning to `COC(=O)NC(C(=O)N1CCC[C@H]1c1ncc(-c2ccc3c(c2)cc2n3C(c3ccc(C4CC4)s3)Oc3cc(-c4cnc([C@@H]5CCCN5C(=O)[C@@H](NC(=O)OC)C(C)C)[nH]4)cc(F)c3-2)[nH]1)C1CCOC(C)(C)C1` (single isomer, unassigned) [Compound 220], the IC50 is 0.93 nM in assay [1] (read-out: 2B IC50, replicon 2B); 0.0021 nM in assay [2]; 0.52 nM in assay [3] (setting [4]).

On to `COC(=O)NC(C(=O)N1CCC[C@H]1c1ncc(-c2ccc3c(c2)cc2n3C(c3ccc(C4CC4)s3)Oc3cc(-c4cnc([C@@H]5CCCN5C(=O)[C@@H](NC(=O)OC)C(C)C)[nH]4)cc(F)c3-2)[nH]1)C1CCOC(C)(C)C1` (single isomer, unassigned) [Compound 221], for which the 50% inhibitory concentration (IC50) in assay [1] (read-out: 2B IC50, replicon 2B) is 0.21 nM; in assay [2] it was 0.0022 nM; in assay [3] (setting [4]), 0.18 nM.

Take `COC(=O)NC(C(=O)N1CCC[C@H]1c1ncc(-c2ccc3c(c2)cc2n3C(c3ccc(C4CC4)s3)Oc3cc(-c4cnc([C@@H]5CCCN5C(=O)[C@@H](NC(=O)OC)C(C)C)[nH]4)cc(F)c3-2)[nH]1)C1CCOC(C)(C)C1` (single isomer, unassigned) [Compound 222]: the half-maximal inhibitory concentration (IC50) in assay [1] (read-out: 2B IC50, replicon 2B) came out at 0.17 nM; in assay [2], 0.002 nM; in assay [3] (setting [4]) it was 0.24 nM.

Consider `COC(=O)NC(C(=O)N1CCC[C@H]1c1ncc(-c2ccc3c(c2)cc2n3C(c3ccc(C4CC4)s3)Oc3cc(-c4cnc([C@@H]5CCCN5C(=O)[C@@H](NC(=O)OC)C(C)C)[nH]4)cc(F)c3-2)[nH]1)C1CCOC(C)(C)C1` (single isomer, unassigned) [Compound 223], for which the IC50 in assay [1] (read-out: 2B IC50, replicon 2B) came to 0.27 nM; in assay [2] it was 0.0025 nM; in assay [3] (setting [4]), 0.24 nM.

Consider `COC(=O)NC(C(=O)N1CCC[C@H]1c1ncc(-c2ccc3c(c2)cc2n3C(c3ccc(C4CC4)s3)Oc3cc(-c4cnc([C@@H]5CCCN5C(=O)[C@@H](NC(=O)OC)C(C)C)[nH]4)cc(F)c3-2)[nH]1)C1CN(C(=O)OC)C1` (single isomer, unassigned) [Compound 227], for which the IC50 in assay [1] (read-out: 2B IC50, replicon 2B) turned out to be 0.17 nM; in assay [2] it was 0.0019 nM; in assay [3] (setting [4]), 0.15 nM.

For the compound `COC(=O)NC(C(=O)N1CCC[C@H]1c1ncc(-c2ccc3c(c2)cc2n3C(c3ccc(C(C)C)s3)Oc3cc(-c4cnc([C@@H]5CCCN5C(=O)[C@@H](NC(=O)OC)C(C)C)[nH]4)cc(F)c3-2)[nH]1)C1C[C@@H](C)O[C@@H](C)C1` (single isomer, unassigned) [Compound 232], the IC50 in assay [1] (read-out: 2B IC50, replicon 2B) amounted to 0.63 nM; in assay [2], 0.0027 nM; in assay [3] (setting [4]), 0.2 nM.

Regarding `COC(=O)NC(C(=O)N1CCC[C@H]1c1ncc(-c2ccc3c(c2)cc2n3C(c3ccc(C(C)C)s3)Oc3cc(-c4cnc([C@@H]5CCCN5C(=O)[C@@H](NC(=O)OC)C(C)C)[nH]4)cc(F)c3-2)[nH]1)C1C[C@@H](C)O[C@@H](C)C1` (single isomer, unassigned) [Compound 235], the IC50 in assay [1] (read-out: 2B IC50, replicon 2B) came to 10.2 nM; in assay [2], 0.0013 nM; in assay [3] (setting [4]) it was 3.87 nM.

For orientation: IC50 means the concentration that inhibits the measured activity by half.
